Tests used:
Assay type in all cases: cell-based
[1] = test system: M. sympodialis CBS 7222; experiment: Test for bacteriostatic effect (MIC) in agar medium, M. sympodialis; settings: 10^7 cells/ml, DST agar, 37° C., analysed after 1 and 2 days; combinations: % of each diol
Description: (§1) Staphylococcus aureus number 515×6352 and Candida albicans H 29 were obtained from the Collection in the Department of Microbiology, […] University Hospital, Gothenburg, Sweden. The isolates were maintained on blood agar at 37° C. M. sympodialis CBS 7222 and M. globosa CBS 7966 Test for bacteriostatic effect (MIC=minimal inhitory concentration). […] Plates were incubated at 37° C. and analysed after 1 and 2 days. Each experiment was repeated.

[2] = test system: Candida albicans H 29; experiment: Test for bacteriostatic effect (MIC) in agar medium, C. albicans; settings: 10^6 cells/ml, DST agar, 37° C., analysed after 1 and 2 days; combinations: % of each diol
Description: (§2) Staphylococcus aureus number 515×6352 and Candida albicans H 29 were obtained from the Collection in the Department of Microbiology, Sahigrenska University Hospital, Gothenburg, Sweden. The isolates were maintained on blood agar at 37° C. M. sympodialis CBS 7222 and M. globosa CBS 7966
(§3) Test for bacteriostatic effect (MIC=minimal inhitory concentration).
(§4) Each of the diols and their combination (1:1:1 volume/volume) was diluted directly with the test culture medium, Diagnostic Sensitivity test agar (DST) (Oxoid, UK) to obtain concentrations, in the test medium, of 2, 3, 4, 6, 9, and 12% volume percent of the respective diol and of 2, 3, and 4% of the respective diol in the combination.
(§5) S. aureus cells were added to the agar medium in concentrations of 10^3 and 10^5 cells/ml while C. albicans cells were added in a concentration of 10^6 cells/ml and M. sympodialis and M. globosa in a concentration of 10^7 cells/ml. Plates were incubated at 37° C. and analysed after 1 and 2 days. Each experiment was repeated. […] The MIC's for propane-1,2-diol, pentane-1,5-diol, 2-methylpentane-2,4-diol and the combination of these 3 diols are shown in the table 1.
Example 3 was performed as example 1.

[3] = test system: M. globosa CBS 7966; experiment: Test for bacteriostatic effect (MIC) in agar medium, M. globosa; settings: 10^7 cells/ml, DST agar, 37° C., analysed after 1 and 2 days; combinations: % of each diol
Description: as §1

[4] = test system: Staphylococcus aureus number 515×6352; experiment: Test for bacteriostatic effect (MIC) in agar medium, S. aureus; settings: combinations: % of each diol; for MIC S. aureaus 10^3: 10^3 cells/ml; for MIC S. aureaus 10^3 / MIC S. aureaus 10^5: DST agar, 37° C., analysed after 1 and 2 days; for MIC S. aureaus 10^5: 10^5 cells/ml; for concentration that completely inhibited the growth of S. aureus: cell concentration not specified
Description: as §2, §3, §4
as §5, with “1. […]” for “1.”

Row | SMILES | MIC M. sympodialis [1] [%] | MIC C. albicans 10^6 [2] [%] | MIC M. globosa [3] [%] | MIC S. aureaus 10^3 [4] [%] | MIC S. aureaus 10^5 [4] [%] | concentration that completely inhibited the growth of S. aureus [4] [%]
1 | OCCCCCO [Pentane-1,5-diol] | 3 | 4 | 3 | 12 | 12 | 12
2 | CCO [Ethanol] | 10 | 8 | 10 | >12 | >12 | –
3 | CC(O)CCO (stereo not drawn) [Butane-1,3-diol] | 10 | 8 | 10 | >12 | >12 | –

The next lines start with results.

Row | MIC M. sympodialis [1] [%] | MIC C. albicans 10^6 [2] [%] | MIC M. globosa [3] [%] | MIC S. aureaus 10^3 [4] [%] | MIC S. aureaus 10^5 [4] [%] | SMILES | concentration that completely inhibited the growth of S. aureus [4] [%]
4 | 3 | 4 | 3 | 12 | 12 | CC(O)CC(C)(C)O (stereo not drawn) [2-Methyl pentane-2,4-diol] | 12
5 | 10 | 9 | 10 | >12 | >12 | CC(O)CO (stereo not drawn) [Propane-1,2-diol] | –

— US9757596B2, “Composition comprising at least 3 different diols” (AMBRIA DERMATOLOGY AB, priority 2004, dated 2017)
